In US20240261374A1, “PHARMACEUTICAL COMPOSITION AND KIT COMPRISING AN IMMUNOMODULATORY SUBSTANCE FOR TREATING DISEASES” (ellennbe GmbH, priority 2021, published 2024):

Assays:
[1] = system: skin; settings: healthy subjects, cited from earlier work
[2] = system: rheumatoid arthritis; assay: Treatment of patients suffering from rheumatoid arthritis (CRP, tender/swollen joints, HAQ, patient's statement); assay type: in vivo, human
[3] = system: polymyalgia rheumatica; assay: Treatment of patients suffering from polymyalgia rheumatica (CRP, tender/swollen joints, HAQ); assay type: in vivo, human; settings: Patient 14; 70 mg gradually reduced to 8 mg, increased again to 10 mg
Excerpt: The investigation and determination of the joint condition has been performed by a physician or rheumatologist. A tender joint (TJ) was pressure sensitive but not necessarily swollen. […] The amount of TJ and SJ was counted. A reduction in the amounts of TJ and/or SJ, respectively, was an indication for a reduction in inflammation, mitigation of the disease and an improvement of the patient's health condition.
The CRP (C-reactive protein) is the most important blood laboratory value for detecting and monitoring inflammation in the body. It was determined by a certified laboratory. A low CRP indicates the absence of an inflammation, while a high CRP is indicative for an inflammation to be present.
The functional disability index (HAQ) is the average of the highest numerical values reported for each of the eight different domains. High HAQ-scores correspond to a high degree of disability.
The treatment according to the present invention was performed by topically applying a heat pad on the upper side of the forearm as described in the Materials and Methods' section ‘Application of a heat pad’. The heat pad was applied for about 1 min to 2 min. The skin turned red and became warm and an increase in the skin temperature was palpable. About 30 see to 1 min after removing the heat pad the injections were performed intradermally within the skin of the red and warmed skin area. […]

[4] = system: ankylosing spondylitis (Bechterew's disease); assay type: in vivo, human; settings: for Outcome of earlier treatment with TNF-α inhibitors (patient history): human, in vivo

COC(=O)c1cccnc1 [MN, methyl nicotinate]
Perfusion response of the skin ([1]; 50 μl of 20 mmol/l MN topically): reproducible perfusion response | Time course of the perfusion increase ([1]; topical application of MN): reaches a stable plateau phase after five minutes

CN(Cc1cnc2nc(N)nc(N)c2n1)c1ccc(C(=O)N[C@@H](CCC(=O)O)C(=O)O)cc1 [MTX, methotrexate]
Adverse side effects / outcome of earlier treatment (patient history) ([2]; human, in vivo): severe adverse effects (tendency to fibrosis in the lungs and sinusitis)

C[C@]12C=CC(=O)C=C1CC[C@@H]1[C@@H]2[C@@H](O)C[C@@]2(C)[C@H]1CC[C@]2(O)C(=O)CO [prednisolone]
Outcome of earlier treatment (patient history) [3]: without complete remission of symptoms

CC[C@@H]1CN(C(=O)NCC(F)(F)F)C[C@@H]1c1cnc2cnc3[nH]ccc3n12 [upadacitinib]
Adverse side effects / outcome of earlier treatment (patient history) ([2]; Patient 7, years 2008 to April 2021): severe adverse effects (tendency to fibrosis in the lungs and sinusitis)

Enbrel®
Outcome of earlier treatment with TNF-α inhibitors (patient history) [4]: accompanied by strong adverse side effects

Remicade®: TNF-α inhibitor
Outcome of earlier treatment with TNF-α inhibitors (patient history) [4]: accompanied by strong adverse side effects

Simponi®: biologic, golimumab; TNF-α inhibitor
Effect of earlier treatment with biologics (patient history) ([4]; Patient 11, ended more than a year before, lost their effect within half a year): had little effect from the outset | Outcome of earlier treatment with TNF-α inhibitors (patient history) [4]: accompanied by strong adverse side effects

tocilizumab: IL-6 inhibitor
Effectiveness of earlier or basic treatment (patient history) ([2]; Patient 7, not the treatment of the invention): only partially efficient
